pIC50: −log10 of the molar value.
Key:
TREM2 = settings: Nilotinib-treated groups, single dose
[1] = set-up: method as in Novartis Investigator Brochure (IB); settings: ref Novartis Investigator Brochure (IB); cited from earlier work
[2] = set-up: method as in Novartis Investigator Brochure (IB); settings: quoted with the PgP IC50; ref Novartis Investigator Brochure (IB); cited from earlier work
PgP = settings: read-out: PgP inhibitor IC50; ref Novartis Investigator Brochure (IB); cited from earlier work
Abl = settings: read-out: Abl IC50; stated in discussion, no reference given; cited from earlier work
total alpha-synuclein = assay: Total alpha-synuclein ELISA in CSF and plasma

Cc1cn(-c2cc(NC(=O)c3ccc(C)c(Nc4nccc(-c5cccnc5)n4)c3)cc(C(F)(F)F)c2)cn1 [Nilotinib]
plasma levels of TREM2 vs placebo (TREM2): not changed | passive permeability [1]: moderate | Cmax [2]: 60 nM | pIC50 (PgP): […] | pIC50 (Abl): […] | plasma total alpha-synuclein vs placebo (total alpha-synuclein; 150 mg group, Figure 5B): significantly reduced | plasma total alpha-synuclein vs placebo (total alpha-synuclein; 3 hours and 4 hours): No difference | plasma concentration of total alpha-synuclein vs placebo (total alpha-synuclein; all Nilotinib-treated groups, 1 hour post dosing): […]

Reference: PMC6412143 (Pharmacology Research & Perspectives, 2019)
